Test results reported in patent US5387518A, “Alkaline protease having stability in solution with anionic surfactant, method for producing the same, use thereof and microorganism producing the same” (priority 1991, dated 1995).
Read-outs that look alike come from different tables or passages of the source.

Tested on: alkaline protease API-25 produced by Bacillus sp. SD523 (Bacillus firmus, FERM BP-3774)
Assay type: biochemical
Procedure: To 500 μl of a 50 mM Atkins-Pantin phosphate buffer solution (pH 10) is added 50 μl of an enzyme solution diluted appropriately, and the resulting mixture is preincubated at 30° C. for 3 to 5 minutes. Then, 500 μl of a 2% Hammerstein casein solution (pH 10) is added to the solution, and after 10 minutes 2 ml of TCA solution (0.132M TCA, adjusted to pH 4 with an acetate buffer solution) is added thereto to stop the reaction. After leaving it to stand at 30° C. for 10~15 minutes, the mixture is filtered using No. 2 filter paper (produced by Toyo Filter Paper Co., Ltd.). To 1 ml of the filtrate solution are added 5 ml of 0.4M sodium carbonate and 1 ml of 6-fold diluted phenol reagent. After leaving the mixture to stand at 30° C. for 20 minutes for color development, its optical density is measured at 660 nm.
Influence of various inhibitors against the enzyme of the present invention is examined under the conditions and by the method described below.
Enzyme solutions containing the enzyme of the present invention in a concentration of 20 nkatal/ml are prepared using a 50 mM borate buffer solution (pH 10), respectively. Various inhibitors in concentrations as shown in Table 11 are added to the enzyme solutions, respectively. After incubating the resulting mixtures at 30° C. for 30 minutes, the residual activity of the enzyme in the mixtures is measured. Results obtained are shown in Table 11, in which the activity is expressed in terms of relative activity assuming that the activity in the absence of inhibitors is 100%.

[1] = inhibitor 1 mM, enzyme 20 nkatal/ml in 50 mM borate buffer pH 10, incubated 30° C. for 30 minutes, activity in the absence of inhibitors = 100%
[2] = inhibitor 10 mM, enzyme 20 nkatal/ml in 50 mM borate buffer pH 10, incubated 30° C. for 30 minutes, activity in the absence of inhibitors = 100%

| Compound | Residual Activity (%) (pH 10) | Residual Activity (%) [1] | Residual Activity (%) [2] | Inhibition of the enzyme (in words) (summary of Table 11, reveals that the enzyme is a serine protease) |
| --- | --- | --- | --- | --- |
| O=C(O)CN(CCN(CC(=O)O)CC(=O)O)CC(=O)O [EDTA, Ethylenediaminetetraacetic acid] | 104% |  |  |  |
| O=C(O)c1cc[c]([Hg][Cl])cc1 [PCMB, pChloromercuribenzoic acid] |  | 98% | 90% |  |
| O=S(=O)(F)Cc1ccccc1 [PMSF, Phenylmethanesulfonyl fluoride] |  | 31% | 0.7% | inhibited by phenylmethanesulfonyl fluoride (PMSF) considerably |
